Test results: patent publication US20250262188A1, “Methods of Increasing the Plasma Drug Exposure of Anticancer Agents” (Scandion Oncology A/S, priority 2021, published 2025)

Legend:
BCRP = target: T1, BCRP (Homo sapiens, UniProt Q9UNQ0); test: 3H-SN-38 uptake in HT29 parental cell monolayers (Example 6); format: cell-based
T1 construct: endogenous in cells; host or cells: HT29 parental and HT29 SN38-resistant colorectal cancer cells
T1 sequence (Q9UNQ0 1-655): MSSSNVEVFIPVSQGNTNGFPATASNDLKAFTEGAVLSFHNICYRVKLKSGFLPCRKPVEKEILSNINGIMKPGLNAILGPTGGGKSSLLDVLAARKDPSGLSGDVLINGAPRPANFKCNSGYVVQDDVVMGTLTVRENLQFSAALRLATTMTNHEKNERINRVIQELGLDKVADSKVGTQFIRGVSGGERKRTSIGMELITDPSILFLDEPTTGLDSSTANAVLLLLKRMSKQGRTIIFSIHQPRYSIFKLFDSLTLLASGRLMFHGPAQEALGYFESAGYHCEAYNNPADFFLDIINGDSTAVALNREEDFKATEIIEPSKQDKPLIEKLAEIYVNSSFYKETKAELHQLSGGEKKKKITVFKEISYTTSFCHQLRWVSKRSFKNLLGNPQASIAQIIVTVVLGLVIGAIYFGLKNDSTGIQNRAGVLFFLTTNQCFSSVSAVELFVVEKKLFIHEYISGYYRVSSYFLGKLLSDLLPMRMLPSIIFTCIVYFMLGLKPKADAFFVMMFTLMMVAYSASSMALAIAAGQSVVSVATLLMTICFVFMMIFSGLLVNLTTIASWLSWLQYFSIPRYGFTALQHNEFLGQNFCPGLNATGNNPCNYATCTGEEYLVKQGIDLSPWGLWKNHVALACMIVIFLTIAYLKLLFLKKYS
Procedure: All treatments were investigated in three technical replicates (N=3). On the day of experimentation, the culture media was exchanged with 100 μL transport buffer (HBSS, 0.05% BSA, 10 mM HEPES, pH 7.4) and cells were incubated for 15 minutes at 37° C.
Subsequently, the blank transport buffer was exchanged with 50 μL transport buffer containing the different compounds (in 2x of the final concentration) to be tested and incubated for 15 minutes at 37° C. The uptake experiment was started by adding 50 μL of ^3H-SN38 at a concentration of 2 μCi/mL to all wells (the resulting concentration of ^3H-SN38 during the experiment was 1 μCi/mL). The uptake experiment was stopped after 15 minutes of incubation at 37° C. by removing the transport buffer from all wells.
The cell monolayers were subsequently washed twice by adding/removing ice-cold transport buffer twice and finally the cell monolayers were lysed by incubation in 100 μl of 0.1% TritonX-100 for 15 minutes at ambient temperature. Cell lysates were transferred to scintillation vials containing 2 mL of scintillation fluid (Ultima Gold, PerkinElmer). Each well was washed with 2×100 μL purified water (milliQ), which was also transferred to respective scintillation vials.

[1] = system: SN38-resistant human colon cancer cell lines (HT29 and LoVo); test: Cell viability (MTT/PrestoBlue) and clonogenic assays (Example 4); format: cell-based; conditions: SN-38-resistant cells exposed to SCO-101 and SN-38
Text: Pairs of parental (sensitive) and SN38-resistant human colon cancer cell lines (HT29 and LoVo) were used. ABCG2 overexpression and effects of SCO-101 on ABCG2 was investigated by western blot, qPCR, dye-flux assays, bi-directional flux assays, 3H-SN38 accumulation assays and vesicular uptake assays. The effect of SCO-101 on SN38 re-sensitization was investigated by cell viability assays (MTT/PrestoBlue) and clonogenic assays.

Uptake of SN-38 in the presence vs absence of SCO-101, all seeded cell densities (BCRP; 25 μM SCO-101, HT29 parental): increased uptake
Uptake of SN-38 relative to blank HBSS transport buffer control (BCRP; 25 μM test compound, HT29 parental, ANOVA α=0.05): significantly increased
EC50 (BCRP; HT29 parental cell monolayers, read-out: Estimated EC50-value for increase in uptake of SN-38): 9.1 µM
Uptake of SN-38 with increasing concentrations of SCO-101 (BCRP; SCO-101 100 to 0.5 μM, HT29 parental): concentration-dependent increase
Compound: O=C(Nc1cc(C(F)(F)F)cc(C(F)(F)F)c1)Nc1ccc(Br)cc1-c1nnn[nH]1 [SCO-101]
Effect on cell viability and colony formation of the combination with SN-38 compared to either drug alone [1]: synergistic inhibitory effect
